Structure (SMILES)	melting point
CCCCCCCCCCCCCCCCCC(=O)Nc1cccc(N(CC(=O)O)CC(=O)O)c1	135 to 140 °C
CCOc1ccccc1N(C(=O)C(N)=O)c1nc(N(CC)CC)nc(N(CC)CC)n1	97 to 100 °C
Cc1cc(C)nc(SSc2ccc([N+](=O)[O-])cc2C(Cl)(Cl)Cl)n1	151 °C
CCCCOc1c(N(C)C(=O)OC(C)(C)C)n(CC(C)C)c(=O)c2ccc(-n3cnnn3)cc12	199 to 200 °C
CCCCCCCCCCCCCCCCCC(=O)Oc1cc(OC)cc(OC)c1C(=O)C=Cc1ccc(OC)cc1	65 to 66 °C
Cc1nc(-c2ccc(OCc3ccncc3)cc2)no1	132 to 133 °C
CC(=O)NCc1ccsc1	46 to 47 °C
O=C(Nc1ccc(Oc2ccnc(NC3(CO)CCCC3)n2)c2ccccc12)c1cc(F)cc(N2CCOCC2)c1	115 to 117 °C
C(=C\c1nc(COc2ccc(CCCn3nccn3)cc2)co1)/c1ccccc1	103 to 104 °C
CC1(C)CC(Nc2nc(NC3CC(C)(C)NC(C)(C)C3)nc(N(CO)C3CC(C)(C)NC(C)(C)C3)n2)CC(C)(C)N1	201 to 202 °C
O=C1Nc2ccc(CN3C(=O)CSC3=O)c(F)c2C1=Cc1cc(CN2CCOCC2)c[nH]1	246 to 248 °C
COc1c(Cl)ccc(Cl)c1C(=O)NOCC(=O)O	145 to 154 °C
CS(=O)(=O)Nc1ccc(N2CCN(c3cc([N+](=O)[O-])ccn3)CC2)cc1	182 to 183 °C
Cc1nsc(Cl)c1CS(=O)(=O)C1=NOC(C)(C)C1	113 to 114 °C
O=C(Nc1ccc(-n2nc(C(F)(F)F)cc2C(F)(F)F)cc1)c1cc(F)c(F)c(F)c1	158 to 159 °C
COc1ccc(S(=O)(=O)C2(C(=O)NO)CCN(C)CC2)cc1	89 °C
CCCc1nc2c(N)nc3ccccc3c2n1CCCC(=O)N1CCOCC1	200 to 202 °C
CCOC(=O)CN(Cc1ccccc1Cl)c1ccc(C(O)(C(F)(F)F)C(F)(F)F)cc1	146 °C
CCN(c1cc(S(C)(=O)=O)ccc1C(=O)O)S(C)(=O)=O	199 to 200 °C
Fc1ccc2ncn3ncnc3c2c1	193 to 195 °C

Structure (SMILES)	melting point
N=C(Nc1ccccc1)Nc1ncccc1OCc1c(F)cccc1F	136 to 137 °C
CC(=O)Nc1ccc(C[C@H](NC(=O)N(CCO)CCc2ccccc2)C(=O)NCCN(C)C)cc1	132 to 137 °C
Cc1cn(C2OC(CO)C(O)C2F)c(=O)[nH]c1=O (stereo unspecified)	185 to 186 °C
O=Cc1ccc(N(CCO)CCO)cc1	63 to 64 °C
CCOc1cc2cc(C3=NNC(=O)CC3C)sc2cc1OCC (stereo unspecified)	170 to 171 °C
Cc1nc(N)nc(N)c1I	154 to 156 °C
Nc1nc2cccnc2c2c1nc(CO)n2Cc1cc(-c2ccc(F)cc2)no1	247 to 248 °C
CCOC(=O)C(NC(=O)CCl)N(C(=O)CCl)c1cscn1 (stereo unspecified)	102 to 104 °C
O=Cc1ccc2nccnc2c1	134 °C
CCCCc1ccc(-c2ccc(CCc3ccc(Cl)cc3)cc2)cc1	129 °C
CC(C)(C)OC(=O)Nc1c(C#CBr)c(C#N)nn1-c1c(Cl)cc(C(F)(F)F)cc1Cl	168 to 170 °C
NC(=O)CNc1ncccc1N	153 to 155 °C
COc1ccc(N(C)CCCOc2ccc3ccccc3c2)cc1	112 °C
O=C1NC[C@H]2CCC[C@H]2O1 (relative stereo)	56 to 58 °C
COCCOc1ncccc1S(N)(=O)=O	102 to 103 °C
Cc1nc[nH]c1CSCCNC(=N)NS(N)(=O)=O	130 to 133 °C
CC(C)(C)CC(C)(C)C(CCC(=O)O)CC(=O)O (stereo unspecified)	135 to 137 °C
NS(=O)(=O)c1cc(C(=O)CCCCCl)cc2c1CCC2	117 to 119 °C
CCCCc1nc2c(N)nc3ccccc3c2n1CCOCCN1CCCS1(=O)=O	152 to 154 °C
CCOC(=O)CCc1ccc2c(CCC(=O)OCC)c(O)ccc2n1	74 to 76 °C

Structure (SMILES)	melting point
C=C(c1ccc(N(C)C)cc1)c1ccc(N2CCCC2)cc1C	90 to 93 °C
CC(C)(O)CNC(=O)CC1CN=C(c2cc3cc(Oc4ccc(S(C)(=O)=O)nc4)cc(OC4CCOCC4)c3[nH]2)S1 (stereo unspecified)	195 to 196 °C
CCOC(=O)c1nc(C)c(SC)c(O)n1	139 °C
COc1cc2c(cc1Nc1ncc(Cl)c(N[C@H]3[C@@H](C(N)=O)[C@@H]4C=C[C@H]3C4)n1)CCN(C[C@H](O)C(F)(F)F)CC2	120 to 126 °C
O=C1CCC(CCN2CCN(c3cc(C(F)(F)F)ccc3F)CC2)CC1	75 to 76 °C
CCCCCCCCCCCCOC(=O)NCCCCC(N)C(=O)O (stereo unspecified)	> 260 °C
Oc1ccc(-c2ccc3ccc(O)cc3c2)cc1	210 °C
Nc1c(-c2cc(Cl)ccc2O)nnn1-c1ccc(C(F)(F)F)cc1Cl	74.5 to 77.5 °C
Oc1ccc2c(NCCN3CCOCC3)noc2c1	151 to 152 °C
O=S(=O)(Nc1cccc(Cl)c1Cl)c1cc(S(=O)(=O)Nc2cccc(Cl)c2Cl)c2cc(O)ccc2c1	117 to 119 °C
Cc1cc(-c2nc3cccnn3c2-c2ccnc(NC(=O)NCC(F)(F)F)c2)ccc1F	229 to 230 °C
Oc1ccc(-c2ccc(F)cc2F)cc1C12CC3CC(CC(C3)C1)C2	146 to 148 °C
CCCCCCCc1cnc(-c2ccc(CCC(=O)OCC(F)(F)C(F)F)cc2)nc1	42 °C
CCCc1c(OCCCCOc2ccc(C(=O)c3cccc(C(=O)O)c3)cc2CCC(=O)O)ccc2c1OCCC2=O	177 to 180 °C
Nc1nc2c(ncn2OCC(O)CO)c(=O)[nH]1 (stereo unspecified)	252 to 253 °C
CCOC(=O)c1cnc2ccc3nc(Cl)sc3c2c1Cl	143 to 146 °C
c1cc(OCC2CCCCC2)ccc1Cc1nnn[nH]1	156 to 158 °C
CC(C)OC(=O)Nc1ccsc1	105 to 107 °C
N[C@@H](CSCC1CCN(C(=O)OCc2ccccc2)CC1)C(=O)O	187 to 190 °C
COC(=O)C=CC1=CC2=CNC=C3CC(N(C)C)C(=C23)CO1 (stereo unspecified)	168 to 170 °C

The remaining lines, values ahead:

melting point	Structure (SMILES)
248 to 250 °C	O=C1C2=C(NCCC2)N(c2ccccc2)C2=NCCN12
107 to 109 °C	CC(C)(C)OC(=O)NCCC[C@@H](CO)NC(=O)OCC1c2ccccc2-c2ccccc21
133 to 135 °C	COC(=O)COc1ccc2ccc(C(C)=O)c(O)c2c1
118 to 119 °C	CCOC(=O)n1c(C(=O)c2ccccc2)c(N)c2c(Cl)cccc21
243 to 245 °C	COc1cccc2c(NCc3ccccc3)nc(N)nc12
264 to 265 °C	Cn1c(COc2ccc(CC3SC(=O)NC3=O)cc2)nc2cnccc21 (stereo unspecified)
294 °C	Cn1c2ccccc2c2c(C(=O)O)c(C(=O)O)ccc21
233 to 235 °C	CC(=O)Nc1cc(C(=O)NNC(=O)c2occ(-c3ccccc3)c2-c2ccccc2)ccc1O
169 to 170 °C	CCOC(=O)c1cc2ccccc2n(-c2c(Cl)cccc2Cl)c1=N
225 to 227 °C	CCN1C(=O)CCCc2c1ccc(Nc1ncc(Cl)c(Nc3ccccc3C(=O)NC)n1)c2OC
184 to 186 °C	CC(C(N)=O)c1ccc2c(c1)CC(=O)c1ccccc1S2 (stereo unspecified)
164 °C	O=C1OC(c2ccccc2)=NC1=Cc1cccnc1
138 to 139 °C	COC(=O)c1cncc(OCc2ccc(OCc3nc(-c4ccccc4)oc3C)cc2)c1
110 to 111 °C	COc1ccc(NC(=O)C(C)(C)CCCOc2cc(C)ccc2C)cc1OC
99 to 101 °C	CC(C)(C)OC(=O)CC[C@@H](NC(=O)OCc1ccccc1)c1nnn[nH]1
176 to 177 °C	Cc1c2c(c(Cc3ccc(C(C)C)cc3)c(C)c1NC(=O)NCCO)OCC2
179 to 180 °C	CN1C(=O)CC[C@]2(C)c3ccc(Sc4nc5cc(Cl)ccc5s4)cc3CC[C@@H]12
147 to 150 °C	O=C(O)c1cccnc1C(=O)c1cccc(C(F)(F)F)c1
160 to 161 °C	COc1cccc(Cn2cnc3c(-c4ccco4)nc(Cl)nc32)c1
175 to 177 °C	CC1(C)CC(=O)c2c(SCCO)sc(-c3ccccn3)c2C1
202 to 207 °C	O=S(=O)(c1ccccc1)c1c[nH]c2cccc(Br)c12

melting point	Structure (SMILES)
147 to 148 °C	CCC1CCCCN1CCC(=O)N1c2ccccc2NC(=O)c2ccccc21 (stereo unspecified)
74 to 78 °C	CCOC(=O)c1ccc2c(c1)sc1ccccc12
96.5 °C	CCCc1cc(Cl)nc(-c2cccc(Oc3ccccc3Cl)n2)n1
220 to 222 °C	Cc1cccc(C(N)=O)c1Nc1nc(Nc2ccc3c(c2)C(C)(C)CCC(=O)N3)ncc1Cl
118 to 120 °C	C[C@@H](O)[C@H](NC(=O)Cc1ccccc1)C(=O)O
163 °C	Cc1ccc(S(=O)(=O)OCCn2c(=NC(=O)C(F)(F)F)sc3cc(C(F)(F)F)ccc32)cc1
217 to 219 °C	CCc1c(C(=O)NN2CCCCC2)nc(-c2ccccc2Cl)n1-c1ccc(Cl)cn1
99 to 100 °C	O=C1CCCc2cc(-c3ccccc3)ccc21
245 to 247 °C	COc1ccc(NC(=O)N(C)Cc2cccc3c2CN(C2CCC(=O)NC2=O)C3=O)cc1 (stereo unspecified)
160 to 164 °C	CC(=O)NC1CCC(=O)c2sccc21 (stereo unspecified)
167 to 168 °C	O=C1c2ccccc2C(=O)N1CC1CCC2CN(c3ccccn3)CCN2C1 (stereo unspecified)
215 to 217 °C	COc1ccc(C(=O)NC(N)=NC(=O)Cn2c(Cl)ccc2Cl)cc1
259 °C	CNC(=O)c1cc2c(nc(C)n2C)c2c1CCC(c1ccccc1)N2 (stereo unspecified)
94 to 96 °C	CC(C)n1c(S(=O)(=O)c2ccc(OCc3ccccc3)cc2)nc2ccccc21
106 to 107 °C	COC(=O)c1ccc(CNC(=O)OCc2ccccc2)cc1OCc1ccccc1
223 to 224 °C	COC(=O)c1cc(OC)cc(-c2ccc(NC(C)=O)cc2)n1
70 to 71 °C	Cc1cc(O)ccc1OCc1ccccc1
185 to 187 °C	COC(=O)c1ccc2c(c1)c(Cc1ccc(C(=O)NS(=O)(=O)c3ccccc3C)cc1OC)cn2C
159 to 161 °C	CCN(CC)CCNc1ccc(CN(C)S(=O)(=O)CC)c2sc3ccccc3c(=O)c12
> 250 °C	O=C(O)c1cccc(C(=O)C=Cc2ccc(Cl)c(Cl)c2)c1O

Reference: a melting point compilation (Tetko et al.; mined from patent text by program, amines drawn as free bases though some values may be those of a salt)
